Laboratory results taken from PMC9571290, “Preliminary Structure–Activity Relationship Study of the MMV Pathogen Box Compound MMV675968 (2,4-Diaminoquinazoline) Unveils Novel Inhibitors of Trypanosoma brucei brucei” (Molecules, 2022).

Columns and labels:
[1] = test system: trypanosome plasma membrane; test: plasma membrane integrity (SYBR Green); assay type: cell-based, Trypanosoma brucei brucei; conditions: IC99, IC90, IC50, IC10; up to 120 min
Method: The plasma membrane is the first barrier protecting the cell from the external environment and therefore might represent an important challenge for compounds to exert their inhibitory action. Thus, compounds 7 and 10 were assessed for their ability to induce alterations in cell integrity as previously described with a modification consisting of using an SYBR green assay. The principle of this assay is based on the fact that upon treatment with membrane disruptors, trypanosomes with compromised plasma become fluorescent as a result of SYBR green entry and fixation to the exposed DNA. Practically, in a 96-well microtiter plate, 90 µL of trypanosome suspension (2 × 10^6 cells/mL/well) was preincubated with SYBR Green (2X) (Sigma Aldrich) for 15 min at 37 °C and 5% CO2 in darkness. […] The plate was then incubated at 37 °C on a Magelan Infinite M200 multiwell plate reader (Tecan), and fluorescence was further recorded every 5 min for up to 120 min at λex = 485 and λem = 538 nm. […] The results are expressed as the mean ± SD of two experiments carried out in duplicate after deducting the background signal (wells containing HMI-9 medium) and then used to plot the fluorescence counts versus time (min) graph.

[2] = in vitro; conditions: African green monkey

Structure (SMILES) | effect on plasma membrane permeability [1] | CC50 at 48 h [2]
COc1ccccc1NCc1ccc2nc(N)nc(N)c2c1 [Analog 7, 6-(((2-methoxyphenyl)amino)methyl)quinazoline-2,4-diamine] | no impairment or a rather mild effect | 24.8 ± 0.87 µM
Nc1nc(N)c2cc(CNc3cc(Cl)ccc3Cl)ccc2n1 [Analog 10, 6-(((2,5-dichlorophenyl)amino)methyl)quinazoline-2,4-diamine] | no impairment or a rather mild effect | 78.2 ± 0.8 µM
